Experimental data from ChEMBL document CHEMBL1151143, “Repin, a sesquiterpene lactone from Acroptilon repens possessing exceptional biological activity” (1990).
The source made the active and inactive calls. The rule behind the calls is not given here.

Columns and labels:
Neuron [1] = assay: Inhibition of NGF-stimulated extension of neural processes in chick embryo neurons at 80 nM; assay type: functional; conditions: Gallus gallus
Neuron [2] = assay: Inhibition of NGF-stimulated extension of neural processes in chick embryo neurons at 300 nM; assay type: functional, cell-based; conditions: Gallus gallus

SMILES	inhibition at 0.08 µM (Neuron [1]) [%]	Activity (Neuron [2])
C=C1C(=O)O[C@H]2[C@H]1[C@@H](OC(=O)[C@]1(C)CO1)CC(=C)[C@@H]1C[C@H](O)[C@]3(CO3)[C@H]21 [REPIN]	50	
C=C1C(=O)O[C@H]2[C@H]1[C@@H](OC(=O)[C@@]1(C)CO1)CC(=C)[C@@H]1C[C@H](O)[C@]3(CO3)[C@H]21		Active
